Values quoted from earlier work in US20260014099A1, “SELF-PRESERVING TOPICAL PHARMACEUTICAL COMPOSITIONS COMPRISING DIETHYLENE GLYCOL MONOETHYL ETHER” (priority 2022, published 2026).

For `NC(N)=O` [urea], the “Water Solubility” value is given as 1,190,000 mg/liter.

For ivermectin, the “Water Solubility” value is given as 4 mg/L.
